Test results taken from patent US8987267B2, “2-substituted-8-alkyl-7-OXO-7,8-dihydropyrido[2,3-D]pyrimidine-6-carbonitriles and uses thereof in treating proliferative disorders” (Temple University—of the Commonwealth System of Higher …, priority 2010, dated 2015).

Experiments:
Type in all cases: biochemical
[1] = biological target: T1, His-tagged full length ARK5 (Homo sapiens, UniProt O60285); assay: ARK5 Kinase Assay (ARK5 Inhibition Assay); conditions: CHKtide substrate, 1 μM ATP
T1 construct: 20 ng His-tagged full length ARK5 (Invitrogen PV4127); His; purchased Invitrogen PV4127
T1 sequence (O60285 1-661): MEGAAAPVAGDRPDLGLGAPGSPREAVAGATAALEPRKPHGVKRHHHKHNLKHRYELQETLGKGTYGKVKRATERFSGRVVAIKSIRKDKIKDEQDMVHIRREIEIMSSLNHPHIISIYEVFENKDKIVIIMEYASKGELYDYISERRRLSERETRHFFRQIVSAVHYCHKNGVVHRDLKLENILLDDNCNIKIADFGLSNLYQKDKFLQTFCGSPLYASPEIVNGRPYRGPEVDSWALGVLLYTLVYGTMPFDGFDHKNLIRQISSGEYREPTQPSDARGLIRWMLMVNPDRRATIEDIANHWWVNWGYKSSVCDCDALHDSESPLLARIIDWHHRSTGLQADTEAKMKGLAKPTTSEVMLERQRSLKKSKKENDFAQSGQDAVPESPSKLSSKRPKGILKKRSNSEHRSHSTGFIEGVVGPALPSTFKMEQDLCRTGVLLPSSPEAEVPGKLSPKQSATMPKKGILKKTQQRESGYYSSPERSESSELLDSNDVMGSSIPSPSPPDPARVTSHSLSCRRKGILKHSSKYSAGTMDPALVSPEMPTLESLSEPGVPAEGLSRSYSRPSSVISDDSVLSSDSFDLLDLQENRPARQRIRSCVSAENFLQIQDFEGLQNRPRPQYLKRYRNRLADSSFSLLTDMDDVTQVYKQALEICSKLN
Description: 20 ng His-tagged full length ARK5 (Invitrogen PV4127), a protein kinase, was diluted into kinase buffer (25 mM HEPES pH 7.5, 10 mM MgCl2, 0.5 mM EGTA, 0.5 mM Na3V04, 5 mM β Glycerophosphate, 2.5 mM DTT, 0.01% Triton X-100) and incubated with the indicated concentration of a compound of Table 3 at room temperature for 30 minutes. The kinase reactions were then initiated by the addition of 1 μg (3.28 μM) CHKtide substrate peptide (Upstate 12-414), 1 μM ATP and 10 μCi γ^32 P-ATP. The reactions were incubated at 30° C. for 10 minutes.
Subsequently, the reactions were stopped by adding 3% phosphoric acid. A 10 μl aliquot was then transferred to an appropriate area of a p30 filtermat. The filtermat was allowed to dry for 20 minutes at room temperature and then washed three times with 75 mM phosphoric acid and twice with methanol. The filtermat was then dried for 20 minutes at room temperature. The filtermat was then exposed to X ray film or read in a scintillation counter. The scintillation counting values were plotted as function of log drug concentration using Prism 4 Graph pad software and IC50 values determined by plotting sigmoidal non-linear regression curves with variable slope.

PKCmu = PKCmu (Homo sapiens, UniProt Q15139); assay: Kinase inhibition panel; conditions: 10 μM ATP
TTK = TTK (Homo sapiens, UniProt P33981); assay: Kinase inhibition panel; conditions: 10 μM ATP
FLT4NEGFR3 = FLT4NEGFR3 (Homo sapiens, UniProt P35916); assay: Kinase inhibition panel; conditions: 10 μM ATP
FGR = FGR (Homo sapiens, UniProt P09769); assay: Kinase inhibition panel; conditions: 10 μM ATP
ARK5 = ARK5 (Homo sapiens, UniProt O60285); assay: Kinase inhibition panel; conditions: 10 μM ATP
c-Kit = c-Kit (Homo sapiens, UniProt P10721); assay: Kinase inhibition panel; conditions: 10 μM ATP
Sequence of c-Kit (P10721 26-976): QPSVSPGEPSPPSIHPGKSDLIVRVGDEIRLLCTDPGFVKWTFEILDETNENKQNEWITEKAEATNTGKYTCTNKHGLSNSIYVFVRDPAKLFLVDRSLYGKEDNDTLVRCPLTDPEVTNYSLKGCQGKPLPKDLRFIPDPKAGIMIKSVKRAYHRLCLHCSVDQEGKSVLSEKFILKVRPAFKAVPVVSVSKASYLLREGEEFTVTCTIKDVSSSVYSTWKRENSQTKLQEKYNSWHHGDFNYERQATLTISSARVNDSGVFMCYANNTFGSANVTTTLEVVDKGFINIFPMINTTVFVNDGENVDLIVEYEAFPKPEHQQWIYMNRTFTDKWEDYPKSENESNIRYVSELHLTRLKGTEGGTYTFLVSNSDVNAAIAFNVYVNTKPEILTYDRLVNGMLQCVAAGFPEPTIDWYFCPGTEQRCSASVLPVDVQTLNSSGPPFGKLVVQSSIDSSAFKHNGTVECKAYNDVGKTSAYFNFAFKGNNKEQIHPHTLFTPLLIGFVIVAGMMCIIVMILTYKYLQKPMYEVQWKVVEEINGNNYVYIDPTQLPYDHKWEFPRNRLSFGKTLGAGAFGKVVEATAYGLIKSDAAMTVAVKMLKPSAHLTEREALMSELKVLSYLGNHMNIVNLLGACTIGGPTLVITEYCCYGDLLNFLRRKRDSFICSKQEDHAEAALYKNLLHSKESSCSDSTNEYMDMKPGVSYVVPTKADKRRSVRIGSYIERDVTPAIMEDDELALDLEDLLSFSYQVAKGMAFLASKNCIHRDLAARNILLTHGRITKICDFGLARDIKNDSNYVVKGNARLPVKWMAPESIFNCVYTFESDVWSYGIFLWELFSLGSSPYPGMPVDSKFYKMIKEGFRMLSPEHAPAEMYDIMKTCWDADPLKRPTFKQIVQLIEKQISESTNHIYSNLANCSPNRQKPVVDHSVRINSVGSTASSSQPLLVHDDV

Sequence of FGR (P09769 whole entry, species assumed): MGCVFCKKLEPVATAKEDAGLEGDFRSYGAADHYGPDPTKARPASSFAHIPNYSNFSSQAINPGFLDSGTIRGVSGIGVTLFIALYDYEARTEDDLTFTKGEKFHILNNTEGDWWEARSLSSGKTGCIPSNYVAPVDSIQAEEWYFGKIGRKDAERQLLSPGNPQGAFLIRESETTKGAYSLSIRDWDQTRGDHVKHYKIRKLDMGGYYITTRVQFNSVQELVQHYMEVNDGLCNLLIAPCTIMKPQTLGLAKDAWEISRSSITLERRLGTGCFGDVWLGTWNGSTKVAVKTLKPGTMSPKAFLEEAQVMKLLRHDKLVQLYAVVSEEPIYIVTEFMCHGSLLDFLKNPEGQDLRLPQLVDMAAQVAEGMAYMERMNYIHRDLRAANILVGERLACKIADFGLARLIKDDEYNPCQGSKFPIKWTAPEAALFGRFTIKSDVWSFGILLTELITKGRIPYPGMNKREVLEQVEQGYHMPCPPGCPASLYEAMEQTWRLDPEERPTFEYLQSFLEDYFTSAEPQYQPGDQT
Sequence of FLT4NEGFR3 (P35916 25-1363): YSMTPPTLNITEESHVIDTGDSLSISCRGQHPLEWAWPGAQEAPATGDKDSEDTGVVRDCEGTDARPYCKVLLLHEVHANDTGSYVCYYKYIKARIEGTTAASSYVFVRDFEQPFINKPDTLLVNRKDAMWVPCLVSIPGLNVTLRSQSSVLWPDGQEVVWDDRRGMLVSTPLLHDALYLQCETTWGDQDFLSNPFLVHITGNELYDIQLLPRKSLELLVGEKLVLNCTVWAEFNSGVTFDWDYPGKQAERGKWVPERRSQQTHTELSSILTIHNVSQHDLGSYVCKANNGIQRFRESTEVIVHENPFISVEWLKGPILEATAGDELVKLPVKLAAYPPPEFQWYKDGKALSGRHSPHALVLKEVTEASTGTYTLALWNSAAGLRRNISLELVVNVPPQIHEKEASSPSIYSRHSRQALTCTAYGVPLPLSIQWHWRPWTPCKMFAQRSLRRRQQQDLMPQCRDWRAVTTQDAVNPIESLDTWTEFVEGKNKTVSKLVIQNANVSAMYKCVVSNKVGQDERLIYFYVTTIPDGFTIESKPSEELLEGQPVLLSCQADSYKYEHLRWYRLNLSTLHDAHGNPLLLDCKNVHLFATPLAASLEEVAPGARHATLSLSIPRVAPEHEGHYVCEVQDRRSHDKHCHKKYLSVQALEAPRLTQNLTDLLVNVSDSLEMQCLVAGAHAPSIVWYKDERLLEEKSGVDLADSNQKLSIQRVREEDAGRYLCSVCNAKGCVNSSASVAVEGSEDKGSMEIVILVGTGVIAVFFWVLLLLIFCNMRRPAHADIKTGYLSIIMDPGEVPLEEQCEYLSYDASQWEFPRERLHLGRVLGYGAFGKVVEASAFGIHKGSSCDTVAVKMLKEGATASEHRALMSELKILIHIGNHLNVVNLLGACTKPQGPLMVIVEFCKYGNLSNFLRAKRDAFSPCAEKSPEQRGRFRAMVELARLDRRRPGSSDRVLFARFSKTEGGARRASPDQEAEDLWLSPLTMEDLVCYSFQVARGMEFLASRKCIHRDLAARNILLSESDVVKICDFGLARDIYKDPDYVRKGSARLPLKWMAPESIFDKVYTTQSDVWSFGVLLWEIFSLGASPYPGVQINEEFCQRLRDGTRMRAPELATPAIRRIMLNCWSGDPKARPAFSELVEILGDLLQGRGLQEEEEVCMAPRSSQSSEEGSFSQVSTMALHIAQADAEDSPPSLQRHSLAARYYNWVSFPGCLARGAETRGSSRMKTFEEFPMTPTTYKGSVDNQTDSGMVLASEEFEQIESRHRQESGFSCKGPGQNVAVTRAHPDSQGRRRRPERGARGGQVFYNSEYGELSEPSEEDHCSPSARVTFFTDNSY
Sequence of PKCmu (Q15139 whole entry): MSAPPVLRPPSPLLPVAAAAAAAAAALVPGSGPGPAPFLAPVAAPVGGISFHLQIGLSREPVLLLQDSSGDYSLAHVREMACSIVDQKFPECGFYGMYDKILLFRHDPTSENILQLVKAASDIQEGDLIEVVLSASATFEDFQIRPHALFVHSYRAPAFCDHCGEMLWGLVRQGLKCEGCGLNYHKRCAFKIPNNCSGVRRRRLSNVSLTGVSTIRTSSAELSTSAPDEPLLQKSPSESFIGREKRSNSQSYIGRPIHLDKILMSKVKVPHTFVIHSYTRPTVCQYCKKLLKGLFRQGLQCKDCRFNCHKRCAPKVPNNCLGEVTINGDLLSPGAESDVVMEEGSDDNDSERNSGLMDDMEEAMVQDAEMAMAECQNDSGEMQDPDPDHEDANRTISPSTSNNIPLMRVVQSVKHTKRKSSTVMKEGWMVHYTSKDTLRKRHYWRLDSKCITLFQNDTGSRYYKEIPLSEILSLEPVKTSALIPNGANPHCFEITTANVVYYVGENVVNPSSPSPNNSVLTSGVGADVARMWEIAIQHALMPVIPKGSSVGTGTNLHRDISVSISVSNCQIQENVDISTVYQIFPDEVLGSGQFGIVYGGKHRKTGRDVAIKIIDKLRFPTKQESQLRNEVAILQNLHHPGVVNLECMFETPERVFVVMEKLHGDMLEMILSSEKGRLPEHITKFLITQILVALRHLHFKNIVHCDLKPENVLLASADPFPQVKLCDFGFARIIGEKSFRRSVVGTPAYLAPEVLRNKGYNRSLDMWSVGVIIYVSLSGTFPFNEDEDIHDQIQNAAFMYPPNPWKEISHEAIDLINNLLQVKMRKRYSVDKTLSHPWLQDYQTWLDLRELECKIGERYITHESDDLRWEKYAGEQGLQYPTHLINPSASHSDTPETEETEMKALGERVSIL
Sequence of TTK (P33981 whole entry, species assumed): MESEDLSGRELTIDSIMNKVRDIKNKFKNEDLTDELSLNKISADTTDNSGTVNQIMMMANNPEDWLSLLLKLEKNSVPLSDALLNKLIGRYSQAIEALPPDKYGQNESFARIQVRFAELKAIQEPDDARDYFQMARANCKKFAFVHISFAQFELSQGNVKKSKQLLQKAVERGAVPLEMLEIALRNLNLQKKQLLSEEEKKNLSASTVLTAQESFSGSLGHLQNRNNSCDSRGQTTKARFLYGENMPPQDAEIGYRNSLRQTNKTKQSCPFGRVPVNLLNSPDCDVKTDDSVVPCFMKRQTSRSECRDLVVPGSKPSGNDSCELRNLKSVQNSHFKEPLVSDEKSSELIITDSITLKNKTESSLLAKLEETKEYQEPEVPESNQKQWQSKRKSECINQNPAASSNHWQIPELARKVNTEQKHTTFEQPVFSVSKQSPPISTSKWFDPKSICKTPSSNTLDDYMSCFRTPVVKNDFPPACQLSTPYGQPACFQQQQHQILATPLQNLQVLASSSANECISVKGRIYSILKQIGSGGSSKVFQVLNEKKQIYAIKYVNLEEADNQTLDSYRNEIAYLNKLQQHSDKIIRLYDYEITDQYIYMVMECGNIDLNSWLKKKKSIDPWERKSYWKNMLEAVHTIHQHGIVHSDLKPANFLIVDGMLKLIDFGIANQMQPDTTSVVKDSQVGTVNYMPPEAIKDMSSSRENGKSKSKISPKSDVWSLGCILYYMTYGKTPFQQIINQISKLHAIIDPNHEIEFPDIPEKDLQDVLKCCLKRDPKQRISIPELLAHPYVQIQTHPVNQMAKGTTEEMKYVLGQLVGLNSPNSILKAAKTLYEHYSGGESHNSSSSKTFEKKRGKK

Row | Structure (SMILES) | IC50 [1] | other results
1 | COc1ccc(Nc2ncc3ccc(=O)n(C4CCCC4)c3n2)cc1OC [Comp. Ex. 4, 8-cyclopentyl-2-((3,4-dimethoxyphenyl)amino)pyrido[2,3-d]pyrimidin-7(8H)-one, reference compound] | > 1000 nM | 
2 | CN1CCN(c2ccc(Nc3ncc4cc(S(=O)(=O)c5ccc(Cl)cc5)c(=O)n(C5CCCC5)c4n3)cc2)CC1 [Comp. Ex. 2, 6-((4-chlorophenyl)sulfonyl)-8-cyclopentyl-2-((4-(4-methylpiperazin-1-yl)phenyl)amino)pyrido[2,3-d]pyrimidin-7(8H)-one, reference compound] | > 10000 nM | 
3 | CC(=O)c1c(C)c2cnc(Nc3ccc(N4CCNCC4)cn3)nc2n(C2CCCC2)c1=O [PD0332991, reference compound] |  | IC50 (PKCmu): 126 nM; IC50 (TTK): 697 nM; IC50 (FLT4NEGFR3): > 10000 nM; IC50 (FGR): > 10000 nM; IC50 (ARK5): 3390 nM; IC50 (c-Kit): > 10000 nM
4 | COc1ccc(Nc2ncc3ccc(=O)n(C4CCCC4)c3n2)c(OC)c1 [Comp. Ex. 5, 8-cyclopentyl-2-((2,4-dimethoxyphenyl)amino)pyrido[2,3-d]pyrimidin-7(8H)-one, reference compound] | > 5000 nM | 
5 | CN1CCN(c2ccc(Nc3ncc4cc(S(C)(=O)=O)c(=O)n(C5CCCC5)c4n3)cc2)CC1 [Comp. Ex. 1, 8-cyclopentyl-2-((4-(4-methylpiperazin-1-yl)phenyl)amino)-6-(methylsulfonyl)pyrido[2,3-d]pyrimidin-7(8H)-one, reference compound] | > 10000 nM | 

The next lines start with results.

Row | IC50 [1] | Structure (SMILES) | other results
6 | 75 nM | N#Cc1cc2cnc(Nc3ccc(N4CCOCC4)cc3)nc2n(C2CCCC2)c1=O [Compound 13, 8-cyclopentyl-2-((4-morpholinophenyl)amino)-7-oxo-7,8-dihydropyrido[2,3-d]pyrimidine-6-carbonitrile] | 
7 | 75 nM | COc1cc(Nc2ncc3cc(C#N)c(=O)n(C4CCCC4)c3n2)cc(OC)c1 [Compound 14, 8-cyclopentyl-2-((3,5-dimethoxyphenyl)amino)-7-oxo-7,8-dihydropyrido[2,3-d]pyrimidine-6-carbonitrile] | 
8 | 49.8 nM | COc1cc(Nc2ncc3cc(C#N)c(=O)n(C4CCCC4)c3n2)cc(OC)c1OC [Compound 15, 8-cyclopentyl-7-oxo-2-((3,4,5-trimethoxyphenyl)amino)-7,8-dihydropyrido[2,3-d]pyrimidine-6-carbonitrile] | 
9 | 43.4 nM | CN1CCN(c2ccc(Nc3ncc4cc(C#N)c(=O)n(C5CCCCC5)c4n3)cc2)CC1 [Compound 16, 8-cyclohexyl-2-((4-(4-methylpiperazin-1-yl)phenyl)amino)-7-oxo-7,8-dihydropyrido[2,3-d]pyrimidine-6-carbonitrile] | 
